Data from patent publication US8383094B2, “Hepatitis C virus inhibitors” (Bristol-Myers Squibb Company, priority 2008, dated 2013).
Read-outs that look alike come from different tables or passages of the source.

System: HCV 1b genotype
Assay: HCV Replicon assay (HCV-neo replicon cells, wild-type)
Type: cell-based
Conditions: HCV 1b genotype replicon, read-out: 1b EC50 (in μM or range)
[1] = Hepatitis C virus, range class A-D

| SMILES | EC50 [1] | also measured |
| --- | --- | --- |
| O=C(Nc1ccc(C#Cc2ccc(NC(=O)[C@@H]3CCCN3C(=O)c3nc(Cl)cc4ccccc34)cc2)cc1)[C@@H]1CCCN1C(=O)c1nc(Cl)cc2ccccc12 [Example D31, (2S,2′S)-N,N′-(1,2-ethynediyldi-4,1-phenylene)bis(1-((3-chloro-1-isoquinolinyl)carbonyl)-2-pyrrolidinecarboxamide)] | 4.57 to 99 nM | – |
| O=C(Nc1ccc(C#Cc2ccc(NC(=O)[C@@H]3CCCN3C(=O)C(F)c3ccccc3)cc2)cc1)[C@@H]1CCCN1C(=O)C(F)c1ccccc1 (stereo partly drawn) [VN8, (2S,2′S)-N,N′-(1,2-ethynediyldi-4,1-phenylene)bis(1-(fluoro(phenyl)acetyl)-2-pyrrolidinecarboxamide)] | < 4.57 nM | – |
| CC(=O)N1CCC[C@H]1C(=O)Nc1ccc(C#Cc2ccc(NC(=O)[C@@H]3C[C@@H](OC(C)(C)C)CN3C(=O)OCc3ccccc3)cc2)cc1 [Example D7, Benzyl (2S,4R)-2-((4-((4-((((2S)-1-acetyl-2-pyrrolidinyl)carbonyl)amino)phenyl)ethynyl)phenyl)carbamoyl)-4-tert-butoxy-1-pyrrolidinecarboxylate] | 1000 to 10000 nM | – |
| O=C(Nc1ccc(C#Cc2ccc(NC(=O)[C@@H]3CCCN3C(=O)c3nccc4ccccc34)cc2)cc1)[C@@H]1CCCN1C(=O)c1nccc2ccccc12 [Example D28, (2S,2′S)-N,N′-(1,2-ethynediyldi-4,1-phenylene)bis(1-(1-isoquinolinylcarbonyl)-2-pyrrolidinecarboxamide)] | 100 to 999 nM | – |
| O=C(Nc1ccc(C#Cc2ccc(NC(=O)C3CC(=O)N(Cc4ccc(Cl)cc4)C3)cc2)cc1)C1CC(=O)N(Cc2ccc(Cl)cc2)C1 (stereo not shown) [Example D14, N,N′-(1,2-ethynediyldi-4,1-phenylene)bis(1-(4-chlorobenzyl)-5-oxo-3-pyrrolidinecarboxamide)] | 1000 to 10000 nM | – |
| CN(C)[C@@H](C(=O)N1CCC[C@H]1C(=O)Nc1ccc(C#Cc2ccc(NC(=O)[C@@H]3CCCN3C(=O)[C@@H](c3ccccc3)N(C)C)cc2)cc1)c1ccccc1 [VN23, (2S,2′S)-N,N′-(1,2-ethynediyldi-4,1-phenylene)bis(1-((2R)-2-(dimethylamino)-2-phenylacetyl)-2-pyrrolidinecarboxamide)] | < 4.57 nM | – |
| COc1cccc2c(C(=O)N3CCC[C@H]3C(=O)Nc3ccc(C#Cc4ccc(NC(=O)[C@@H]5CCCN5C(C)=O)cc4)cc3)nc(Cl)cc12 [Example D46, (2S)-1-Acetyl-N-(4-((4-((((2S)-1-((3-chloro-5-methoxy-1-isoquinolinyl)carbonyl)-2-pyrrolidinyl)carbonyl)amino)phenyl)ethynyl)phenyl)-2-pyrrolidinecarboxamide] | 100 to 999 nM | – |
| CNC(C(=O)N1CCC[C@H]1C(=O)Nc1ccc(C#Cc2ccc(NC(=O)[C@@H]3CCCN3C(=O)C(NC)c3ccccc3)cc2)cc1)c1ccccc1 (stereo partly drawn) [VN30, (2S,2′S)-N,N′-(1,2-ethynediyldi-4,1-phenylene)bis(1-((methylamino)(phenyl)acetyl)-2-pyrrolidinecarboxamide)] | < 4.57 nM | – |
| O=C(Nc1ccc(C#Cc2ccc(NC(=O)[C@@H]3CCCN3C(=O)Cc3ccccc3)cc2)cc1)C1CC1 [Example D15, N-(4-((4-((cyclopropylcarbonyl)amino)phenyl)ethynyl)phenyl)-1-(phenylacetyl)-L-prolinamide] | 100 to 999 nM | – |
| CN1Cc2ccccc2C1C(=O)N1CCC[C@H]1C(=O)Nc1ccc(C#Cc2ccc(NC(=O)[C@@H]3CCCN3C(=O)C3c4ccccc4CN3C)cc2)cc1 (stereo partly drawn) [VN40, (2S,2′S)-N,N′-(1,2-ethynediyldi-4,1-phenylene)bis(1-((2-methyl-2,3-dihydro-1H-isoindol-1-yl)carbonyl)-2-pyrrolidinecarboxamide)] | – | EC50 (range class A-D): 4.57 to 99 nM |
| CN(C)c1ccc(C#Cc2ccc(NC(=O)[C@@H]3CCCN3C(=O)[C@@H](c3ccccc3)N(C)C)cc2)cc1 [Example D60, (S)-1-((R)-2-(dimethylamino)-2-phenylacetyl)-N-(4-((4-(dimethylamino)phenyl)ethynyl)phenyl)pyrrolidine-2-carboxamide] | 100 to 999 nM | – |
| CCc1cccnc1C(=O)N1CCC[C@H]1C(=O)Nc1ccc(C#Cc2ccc(NC(=O)[C@@H]3CCCN3C(=O)c3ncccc3CC)cc2)cc1 [Example D36.4, (2S,2′S)-N,N′-(4,4′-(ethyne-1,2-diyl)bis(4,1-phenylene))bis(1-(3-ethylpicolinoyl)pyrrolidine-2-carboxamide)] | – | EC50 (range class A-D): 4.57 to 99 nM |
| CC(=O)N[C@@H](C(=O)N1CCC[C@H]1C(=O)Nc1ccc(C#Cc2ccc(NC(=O)[C@@H]3CCCN3C(=O)[C@H](NC(C)=O)c3ccccc3)cc2)cc1)c1ccccc1 [VN26, (2S,2′S)-N,N′-(1,2-ethynediyldi-4,1-phenylene)bis(1-((2R)-2-acetamido-2-phenylacetyl)-2-pyrrolidinecarboxamide)] | < 4.57 nM | – |
| O=C(Nc1cccc(C#Cc2cccc(NC(=O)[C@@H]3CCCN3C(=O)OCc3ccccc3)n2)n1)[C@@H]1CCCN1C(=O)OCc1ccccc1 [YQ1, dibenzyl (2S,2′S)-2,2′-(1,2-ethynediylbis(6,2-pyridinediylcarbamoyl))di(1-pyrrolidinecarboxylate)] | – | EC50 (Hepatitis C virus): 7 nM |
| CC[C@H](C(=O)N1CCC[C@H]1C(=O)Nc1ccc(C#Cc2ccc(NC(=O)[C@@H]3CCCN3C(=O)[C@@H](CC)c3ccccc3)cc2)cc1)c1ccccc1 [VN6, (2S,2′S)-N,N′-(1,2-ethynediyldi-4,1-phenylene)bis(1-((2S)-2-phenylbutanoyl)-2-pyrrolidinecarboxamide)] | 4.57 to 99 nM | – |
| O=C(Nc1ccc(C#Cc2ccc(NC(=O)[C@@H]3CCCN3C(=O)OCc3ccccc3)cc2)cc1)[C@H]1CCCO1 [Example D21, Benzyl (2S)-2-((4-((4-(((2R)-tetrahydro-2-furanylcarbonyl)amino)phenyl)ethynyl)phenyl)carbamoyl)-1-pyrrolidinecarboxylate] | 100 to 999 nM | – |
| O=C(Nc1ccc(C#Cc2ccc(NC(=O)[C@@H]3CCCN3C(=O)C(c3ccccc3)N3CC[C@H](O)C3)cc2)cc1)[C@@H]1CCCN1C(=O)C(c1ccccc1)N1CC[C@H](O)C1 (stereo partly drawn) [VN51, (2S,2′S)-N,N′-(1,2-ethynediyldi-4,1-phenylene)bis(1-(((3S)-3-hydroxy-1-pyrrolidinyl)(phenyl)acetyl)-2-pyrrolidinecarboxamide)] | 4.57 to 99 nM | – |
| O=C(Nc1ccc(C#Cc2ccc(NC(=O)[C@@H]3CCCN3C(=O)Cc3ccccc3)cc2)cc1)[C@H]1CCCO1 [Example D17, 1-(Phenylacetyl)-N-(4-((4-(((2R)-tetrahydro-2-furanylcarbonyl)amino)phenyl)ethynyl)phenyl)-L-prolinamide] | 100 to 999 nM | – |
| O=C(Nc1ccc(C#Cc2ccc(NC(=O)[C@@H]3CCCN3C(=O)C(c3ccccc3)N3CCC(O)CC3)cc2)cc1)[C@@H]1CCCN1C(=O)C(c1ccccc1)N1CCC(O)CC1 (stereo partly drawn) [VN20, (2S,2′S)-N,N′-(1,2-ethynediyldi-4,1-phenylene)bis(1-((4-hydroxy-1-piperidinyl)(phenyl)acetyl)-2-pyrrolidinecarboxamide)] | 4.57 to 99 nM | – |
| CC(=O)N1CCC[C@H]1C(=O)Nc1ccc(C#Cc2ccc(NC(=O)[C@@H]3CCCN3C(=O)c3nccc4ccccc34)nc2)cc1 [Example D56, (2S)-1-Acetyl-N-(4-((6-((((2S)-1-(1-isoquinolinylcarbonyl)-2-pyrrolidinyl)carbonyl)amino)-3-pyridinyl)ethynyl)phenyl)-2-pyrrolidinecarboxamide] | – | EC50 (Hepatitis C virus): 2090 nM |
| CC(C)(C)OC(=O)Nc1ccc(C#Cc2ccc(NC(=O)[C@@H]3CCCN3C(=O)[C@H](O)c3ccccc3)cc2)cc1 [Example D60.1, tert-Butyl 4-((4-((S)-1-((R)-2-hydroxy-2-phenylacetyl)pyrrolidine-2-carboxamido)phenyl)ethynyl)phenylcarbamate] | 100 to 999 nM | – |
| O=C(Nc1ccc(C#Cc2ccc(NC(=O)[C@@H]3CCCN3C(=O)Cc3ccccc3)nc2)cn1)[C@@H]1CCCN1C(=O)Cc1ccccc1 [Example D48, (2S,2′S)-N,N′-(1,2-ethynediyldi-5,2-pyridinediyl)bis(1-(phenylacetyl)-2-pyrrolidinecarboxamide)] | < 4.57 nM | – |
| CC(=O)N1CCC[C@H]1C(=O)Nc1ccc(C#Cc2ccc(NC(=O)[C@@H]3CCCCN3C(=O)OCc3ccccc3)cc2)cc1 [Example D11, Benzyl (2S)-2-((4-((4-((1-acetyl-L-prolyl)amino)phenyl)ethynyl)phenyl)carbamoyl)-1-piperidinecarboxylate] | – | EC50 (Hepatitis C virus): 590 nM |
| CN[C@H](C(=O)N1CCC[C@H]1C(=O)Nc1ccc(C#Cc2ccc(NC(=O)[C@@H]3CCCN3C(=O)[C@@H](NC)c3ccccc3)cc2)cc1)c1ccccc1 [VN31, (2S,2′S)-N,N′-(1,2-ethynediyldi-4,1-phenylene)bis(1-((2S)-2-(methylamino)-2-phenylacetyl)-2-pyrrolidinecarboxamide)] | < 4.57 nM | – |
| CCOC(=O)N[C@@H](C(=O)N1CCC[C@H]1C(=O)Nc1ccc(C#Cc2ccc(NC(=O)[C@@H]3CCCN3C(=O)[C@H](NC(=O)OCC)c3ccccc3)cc2)cc1)c1ccccc1 [VN54, Diethyl (1,2-ethynediylbis(4,1-phenylenecarbamoyl(2S)-2,1-pyrrolidinediyl((1R)-2-oxo-1-phenyl-2,1-ethanediyl)))biscarbamate] | – | EC50 (Hepatitis C virus): 0.018 nM |
| O=C(Nc1ccc(C#Cc2ccc(NC(=O)[C@@H]3CCCN3C(=O)c3nc(Cl)cc4ccccc34)cc2)cc1)[C@@H]1CCCN1C(=O)Cc1cccnc1 [Example D40, (2S)-1-((3-Chloro-1-isoquinolinyl)carbonyl)-N-(4-((4-((((2S)-1-(3-pyridinylacetyl)-2-pyrrolidinyl)carbonyl)amino)phenyl)ethynyl)phenyl)-2-pyrrolidinecarboxamide] | 4.57 to 99 nM | – |
| O=C(Nc1ccc(C#Cc2ccc(NC(=O)[C@@H]3CCCN3C(=O)[C@H]3CCCO3)cc2)cc1)C1CC1 [Example D6, N-(4-((4-((cyclopropylcarbonyl)amino)phenyl)ethynyl)phenyl)-1-((2R)-tetrahydro-2-furanylcarbonyl)-L-prolinamide] | 100 to 999 nM | – |
| O=C(Nc1ccc(C#Cc2ccc(NC(=O)[C@@H]3CCCN3C(=O)OCc3ccccc3)cc2)cc1)C1CC1 [Example D18, Benzyl (2S)-2-((4-((4-((cyclopropylcarbonyl)amino)phenyl)ethynyl)phenyl)carbamoyl)-1-pyrrolidinecarboxylate] | 100 to 999 nM | – |
